Reference: patent US20080004302A1, “Novel Compounds” (ASTRAZENECA AB, priority 2006, published 2008)
pIC50: −log10 of the molar value. Structures can show the parent of a compound that is named as a salt.

Assays:
[1] = molecular target: FGFR1 kinase (Homo sapiens, UniProt P11362); assay: Kinase assay (using Caliper technology); assay type: biochemical; conditions: FGFR1 kinase, Caliper; upper bound of bin; read-out: IC50
Procedure: To determine inhibition of FGFR activity, kinase assays were conducted using Caliper technology.
Kinase activity assays were performed in Greiner 384-well low volume plates, with a total reaction volume of 12ul per well. […] The substrate for each assay was a custom peptide with fluorescent tag (13 amino acids in length) the sequence of which was specific for FGFR1 kinase.
Compounds were serially diluted in 5% (v/v) DMSO, before being added to assay plates.
Assay plates were incubated at room temperature for 1.5 h, before the reaction was stopped with the addition of buffer [comprising: 100 mM HEPES—pH7.5, 0.033% Brij-35, 0.22% Caliper Coating Reagent #3, 88mM EDTA, 5% DMSO]. Stopped assay plates were then read using the Caliper LabChip® LC3000 (which uses microfludics to measure a shift in mobility between fluorescent labelled peptide and the FGFR1 kinase—phosphorylated form of this peptide).

[2] = molecular target: T1, human IGF1R (Homo sapiens, UniProt P08069); assay: Inhibition of insulin-like growth factor-1 receptor phosphorylation in R+ cells; assay type: cell-based; conditions: 30 nM IGF1, read-out: IGF cell class
T1 construct: expressed in transfected cells; host or cells: R+ cells (R- mouse fibroblasts transfected with human IGF1R)
Procedure: This immunofluorescence end point cell assay measures the ability of a test compound to reduce the measured levels of IGF1R phosphorylation after IGF1 stimulation in R^+ cells. […] were derived by transfection of R^− mouse fibroblast cells with human IGF1R.
(+5% CO2) incubator for 30 minutes.
Following the compound treatment, the R^+ cells were stimulated with a final concentration of 30 nM IGF1 (Gropep 1M001) for 20 minutes at 37° C. […] Plates were incubated for 1 hour at room temperature. […] Additionally, in-house antibodies raised against phospho […] were also used at a suitable titre determined for each batch.
The plates were incubated at room temperature for one hour. […] After addition of 100 μl/well PBS the plates were sealed with a black seal.
The Green Fluorescent phospho IGF1R -associated signal in each well was measured using an Acumen Explorer HTS Reader (TTP Labtech Ltd., Cambridge). […] The instrument is a laser-scanning fluorescence microplate cytometer, which samples the well at regular intervals and uses threshold algorithms to identify all fluorescent intensities above the solution background without the need to generate and analyse an image. These fluorescent objects can be quantified and provide a measure of the phospho IGF1R levels in cells. Fluorescence dose response data obtained with each compound was exported into a suitable software package (such as Origin) to perform curve fitting analysis. Phospho-IGF1R levels in response to compound treatment versus stimulated and unstimulated controls were expressed as an IC50 value.

[3] = test system: Erk phosphorylation; assay: Growth factor (bFGF) stimulated Erk phosphorylation in NIH 3T3 cells; conditions: Mus musculus, NIH3T3, NIH 3T3 cells, 3 ng/ml bFGF
[4] = molecular target: T2, FGFR1 IIIc (Homo sapiens, UniProt P11362); assay: Cell based inhibition of transiently expressed FGFR1 IIIc phosphorylation via use of ECHO technology (Cos-1 cells); conditions: Cos-1 cells, phospho-FGFR1, ECHO dosing; upper bound of bin; read-out: IC50
T2 construct: host or cells: Cos-1
Procedure: This assay is designed to detect inhibitors of transiently expressed FGFR1 phosphorylation by antibody staining of fixed cells detected using ArrayScan technology.
To undertake the assay, Cos-1 cells were harvested at 90-95% confluence for cell transfection. For each 96-well plate, 24μl Lipofectamine 2000 was added to 809 ul OptiMEM and incubated at room temperature for 5 minutes. […] Equal volumes of DNA and Lipofectamine 2000 were combined (DNA: Lipid=1:1.2 ratio) and incubated at room temperature for 20 minutes.
The harvested Cos-1 cells are counted using a coulter counter and diluted further with 1% FCS/DMEM to 2.5×10^5 cells/ml. For each 96-well, 8.33 ml cells were required. […] 70 μl of media was aspirated from the assay plate using the Quadra before the plate was transferred onto the ECHO 550. […] Compound transfer to the assay plate on the ECHO 550 was at concentration ranges 1)10 μM, 2) 3 μM, 3) 1 μM, 4) 0.3 μM, 5) 0.1 μM, 6) […].
The plates were gently tapped to mix compound in with the cell media and left to incubate at 37° C. with 5% CO2 for 1 hour.
Media was removed from the wells using vacuum aspiration; cells were fixed by adding 50 μl of 100% methanol to each well and incubated at room temperature for 20 minutes.
The plates were read on an Arrayscan (Cellomics).

Chain of FGFR1 kinase (P11362 22-822): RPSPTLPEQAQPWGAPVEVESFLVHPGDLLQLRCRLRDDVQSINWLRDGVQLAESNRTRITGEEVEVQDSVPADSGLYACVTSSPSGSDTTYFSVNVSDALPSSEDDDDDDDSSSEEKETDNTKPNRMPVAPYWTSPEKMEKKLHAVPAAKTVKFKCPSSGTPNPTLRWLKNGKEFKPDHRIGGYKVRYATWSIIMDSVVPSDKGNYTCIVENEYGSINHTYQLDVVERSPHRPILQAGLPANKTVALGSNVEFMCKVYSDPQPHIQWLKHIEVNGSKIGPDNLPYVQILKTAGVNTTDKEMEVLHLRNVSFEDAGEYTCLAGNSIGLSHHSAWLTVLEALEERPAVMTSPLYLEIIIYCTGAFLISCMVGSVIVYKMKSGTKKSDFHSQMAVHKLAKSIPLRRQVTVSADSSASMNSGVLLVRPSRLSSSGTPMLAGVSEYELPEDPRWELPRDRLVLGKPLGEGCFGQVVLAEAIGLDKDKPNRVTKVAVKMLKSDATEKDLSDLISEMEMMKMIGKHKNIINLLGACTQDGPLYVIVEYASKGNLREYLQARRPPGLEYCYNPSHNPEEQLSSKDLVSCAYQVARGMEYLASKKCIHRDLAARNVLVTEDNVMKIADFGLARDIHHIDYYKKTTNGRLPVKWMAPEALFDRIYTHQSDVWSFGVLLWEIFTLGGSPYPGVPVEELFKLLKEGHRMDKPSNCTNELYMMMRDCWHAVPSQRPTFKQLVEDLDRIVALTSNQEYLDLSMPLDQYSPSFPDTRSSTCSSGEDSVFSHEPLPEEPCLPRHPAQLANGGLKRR
T2 sequence (P11362 22-822): as above
T1 sequence (P08069 31-1367): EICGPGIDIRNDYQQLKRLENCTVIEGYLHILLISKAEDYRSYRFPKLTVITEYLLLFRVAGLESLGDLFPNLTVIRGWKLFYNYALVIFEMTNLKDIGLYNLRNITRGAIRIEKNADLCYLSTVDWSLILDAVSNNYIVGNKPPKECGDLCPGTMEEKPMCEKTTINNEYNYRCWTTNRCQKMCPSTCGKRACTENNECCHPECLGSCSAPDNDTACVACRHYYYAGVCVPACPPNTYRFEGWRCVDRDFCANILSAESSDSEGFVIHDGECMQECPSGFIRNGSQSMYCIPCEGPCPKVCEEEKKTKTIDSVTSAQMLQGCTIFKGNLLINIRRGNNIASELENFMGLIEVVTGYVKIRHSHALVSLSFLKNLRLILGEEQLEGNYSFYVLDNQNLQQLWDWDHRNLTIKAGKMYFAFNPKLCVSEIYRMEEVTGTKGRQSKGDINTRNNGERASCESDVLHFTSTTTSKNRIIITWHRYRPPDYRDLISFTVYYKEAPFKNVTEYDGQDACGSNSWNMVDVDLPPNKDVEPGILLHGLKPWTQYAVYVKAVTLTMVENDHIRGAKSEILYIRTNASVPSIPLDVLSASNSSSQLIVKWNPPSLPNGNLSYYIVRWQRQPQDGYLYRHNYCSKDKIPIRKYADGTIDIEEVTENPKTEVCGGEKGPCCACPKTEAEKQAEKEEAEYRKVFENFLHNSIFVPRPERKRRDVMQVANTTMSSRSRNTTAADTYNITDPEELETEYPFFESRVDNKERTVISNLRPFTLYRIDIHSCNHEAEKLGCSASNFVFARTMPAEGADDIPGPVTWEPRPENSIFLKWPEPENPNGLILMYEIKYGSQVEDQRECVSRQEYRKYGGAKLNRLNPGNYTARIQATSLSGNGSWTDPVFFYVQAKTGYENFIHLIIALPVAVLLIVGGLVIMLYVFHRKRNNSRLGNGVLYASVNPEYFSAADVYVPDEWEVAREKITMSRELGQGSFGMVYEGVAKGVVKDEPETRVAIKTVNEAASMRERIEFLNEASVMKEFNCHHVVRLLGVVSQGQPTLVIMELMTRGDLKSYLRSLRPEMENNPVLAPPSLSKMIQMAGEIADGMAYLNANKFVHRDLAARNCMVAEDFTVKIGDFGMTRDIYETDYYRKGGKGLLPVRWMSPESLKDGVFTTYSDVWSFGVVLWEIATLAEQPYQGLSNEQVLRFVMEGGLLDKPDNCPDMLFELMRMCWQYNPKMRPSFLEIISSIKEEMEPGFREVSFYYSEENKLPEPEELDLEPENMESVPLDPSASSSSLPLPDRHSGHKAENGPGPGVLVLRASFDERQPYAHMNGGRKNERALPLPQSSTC

pIC50 [1] | pIC50 [2] | pIC50 [4] | SMILES | pIC50 ([3]; upper bound of bin) | pIC50 [3]
> 5.00 | < 5.00 |  | c1ccc(OCc2cc(Nc3ccnc(NCc4cc(C5CC5)no4)n3)[nH]n2)cc1 [Example 35, N-[(3-cyclopropyl1,2-oxazol-5-yl)methyl]-N′-[5-(phenoxymethyl)-2H-pyrazol-3-yl]pyrimidine-2,4-diamine] | > 6.00 | 
> 4.52 | 5.00 to 6.00 |  | Cc1cc(CNc2nccc(Nc3cc(CCc4ccc(OCc5ccccc5)cc4)[nH]n3)n2)on1 [Example 37, N-[(3-methyl1,2-oxazol-5-yl)methyl]-N′-[5-[2-(4-phenylmethoxyphenyl)ethyl]-2H-pyrazol-3-yl]pyrimidine-2,4-diamine] | > 5.00 | 
> 6.70 | < 5.00 | > 6.00 | COc1cc(OC)cc(OCc2cc(Nc3ccnc(NCc4cc(C)no4)n3)n[nH]2)c1 [Example 44, N′-[5-[(3,5-Dimethoxyphenoxy)methyl]-2H-pyrazol-3-yl]-N-[(3-methyl1,2-oxazol-5-yl)methyl]pyrimidine-2,4-diamine] |  | > 6.70
> 5.00 | < 5.00 |  | Cc1cc(CNc2nccc(Nc3cc(CCc4cccc(N5CCOCC5)c4)[nH]n3)n2)on1 [Example 55, N-[(3-methyl1,2-oxazol-5-yl)methyl]-N′-[5-[2-(3-morpholin-4-ylphenyl)ethyl]-1H-pyrazol-3-yl]pyrimidine-2,4-diamine] | > 5.00 | 
> 5.00 | < 5.00 |  | CCc1cccc(COc2cc(Nc3ccnc(NCc4cc(C)no4)n3)n[nH]2)c1 [Example 74, N′-[5-[(3-ethylphenyl)methoxy]-2H-pyrazol-3-yl]-N-[(3-methyl1,2-oxazol-5-yl)methyl]pyrimidine-2,4-diamine] | > 6.00 | 
 | < 5.00 |  | COCC(C)Oc1cc(Nc2ccnc(NCc3cc(C4CC4)no3)n2)n[nH]1 (stereo not shown) [Example 76, N-[(3-cyclopropyl-1,2-oxazol-5-yl)methyl]-N′-[5-(1-methoxypropan-2-yloxy)-1H-pyrazol-3-yl]pyrimidine-2,4-diamine] | > 6.00 | 
> 6.70 |  | > 5.00 | CNC(=O)c1cc(CNc2nccc(Nc3cc(OC(C)C)n[nH]3)n2)on1 [Example 79, N-methyl-5-[[[4-[(5-propan-2-yloxy-2H-pyrazol-3-yl)amino]pyrimidin-2-yl]amino]methyl]1,2-oxazole-3-carboxamide] | > 5.00 | 
> 6.70 |  | > 6.00 | CC(C)Oc1cc(Nc2ccnc(NCc3cc(-c4ncccn4)no3)n2)n[nH]1 [Example 82, N′-(5-propan-2-yloxy-2H-pyrazol-3-yl)-N-[(^3-pyrimidin-2-yl-1,2-oxazol-5-yl)methyl]pyrimidine-2,4-diamine] | > 6.00 | 
> 6.70 |  | > 6.00 | CC(C)Oc1cc(Nc2ccnc(NCc3cc(C4CCCO4)no3)n2)[nH]n1 (stereo not shown) [Example 84, N-[[3-(oxolan-2-yl)1,2-oxazol-5-yl]methyl]-N′-(5-propan-2-yloxy-2H-pyrazol-3-yl)pyrimidine-2,4-diamine] |  | > 6.70
> 5.00 | < 5.00 |  | Cc1cc(CNc2nccc(Nc3cc(OCc4cccc(N5CCOCC5)c4)[nH]n3)n2)on1 [Example 87, N-[(3-methyl1,2-oxazol-5-yl)methyl]-N′-[5-[(3-morpholin-4-ylphenyl)methoxy]-2H-pyrazol-3-yl]pyrimidine-2,4-diamine] | > 5.00 | 
> 6.00 | 5.00 to 6.00 |  | Cc1cc(CNc2nccc(Nc3cc(OCc4cccc(NC(=O)OC(C)(C)C)c4)[nH]n3)n2)on1 [Example 89, tert-Butyl N-[3-[[5-[[2-[(3-methyl1,2-oxazol-5-yl)methylamino]pyrimidin-4-yl]amino]-1H-pyrazol-3-yl]oxymethyl]phenyl]carbamate] | > 6.00 | 
> 5.00 | < 5.00 |  | Cc1cc(CNc2nccc(Nc3cc(OCc4cccc(C(=O)N5CCOCC5)c4)[nH]n3)n2)on1 [Example 90, [3-[[5-[[2-[(3-methyl1,2-oxazol-5-yl)methylamino]pyrimidin-4-yl]amino]-1H-pyrazol-3-yl]oxymethyl]phenyl]-morpholin-4-yl-methanone] | > 5.00 | 
> 5.00 | < 5.00 |  | Cc1cc(CNc2nccc(Nc3cc(OCc4cccc(C#N)c4)[nH]n3)n2)on1 [Example 92, 3-[[5-[[2-[(3-methyl1,2-oxazol-5-yl)methylamino]pyrimidin-4-yl]amino]-2H-pyrazol-3-yl]oxymethyl]benzonitrile hydrochloride] | > 6.00 | 
> 5.00 | < 5.00 |  | Cc1cc(CNc2nccc(Nc3cc(OCc4ccc(C(F)(F)F)cc4)[nH]n3)n2)on1 [Example 96, N-[(3-methyl1,2-oxazol-5-yl)methyl]-N′-[5-[[4-(trifluoromethyl)phenyl]methoxy]-1H-pyrazol-3-yl]pyrimidine-2,4-diamine hydrochloride] | > 5.00 | 
> 5.00 |  |  | Cc1cc(CNc2nccc(Nc3cc(OCc4cccc(C(=O)O)c4)[nH]n3)n2)on1 [Example 98, 3-[[5-[[2-[(3-methyl1,2-oxazol-5-yl)methylamino]pyrimidin-4-yl]amino]-1H-pyrazol-3-yl]oxymethyl]benzoic acid] | > 5.00 | 
> 6.00 | 5.00 to 6.00 |  | Cc1cc(CNc2nccc(Nc3cc(-c4cccs4)[nH]n3)n2)on1 [Example 104, N-[(3-methyl1,2-oxazol-5-yl)methyl]-N′-(5-thiophen-2-yl-1H-pyrazol-3-yl)pyrimidine-2,4-diamine] | > 6.00 | 
> 6.00 | 5.00 to 6.00 |  | Cc1cc(CNc2nccc(Nc3cc(CCc4nc(-c5ccccc5)no4)[nH]n3)n2)on1 [Example 106, N-[(3-methyl1,2-oxazol-5-yl)methyl]-N′-[5-[2-(3-phenyl-1,2,4-oxadiazol-5-yl)ethyl]-2H-pyrazol-3-yl]pyrimidine-2,4-diamine] | > 6.00 | 
> 6.70 | < 5.00 |  | Cc1cc(CNc2nccc(Nc3cc(CCc4ccco4)[nH]n3)n2)on1 [Example 107, N′-[5-[2-(2-furyl)ethyl]-2H-pyrazol-3-yl]-N-[(3-methyl1,2-oxazol-5-yl)methyl]pyrimidine-2,4-diamine] | > 6.00 | 
> 6.70 |  |  | NC(=O)c1cc(CNc2nccc(Nc3cc(CCc4ccco4)n[nH]3)n2)on1 [Example 112, 5-[[[4-[[5-[2-(2-furyl)ethyl]-2H-pyrazol-3-yl]amino]pyrimidin-2-yl]amino]methyl]1,2-oxazole-3-carboxamide] | > 5.00 | 
> 5.00 | < 5.00 |  | Cc1cc(CNc2nccc(Nc3cc(C4CCOCC4)[nH]n3)n2)on1 [Example 114, N-[(3-methyl1,2-oxazol-5-yl)methyl]-N′-[5-(oxan-4-yl)-1H-pyrazol-3-yl]pyrimidine-2,4-diamine hydrochloride] | > 5.00 | 
> 6.00 | < 5.00 |  | Cc1cc(CNc2nccc(Nc3cc(CCc4cccnc4)[nH]n3)n2)on1 [Example 115, N-[(3-methyl1,2-oxazol-5-yl)methyl]-N′-[5-(2-pyridin-3-ylethyl)-2H-pyrazol-3-yl]pyrimidine-2,4-diamine] | > 5.00 | 
